From US20230136569A1, “USE OF NMN TO REDUCE IMMUNODEPRESSION AND IMMUNOSENESCENCE” (NUVAMID SA, priority 2020, published 2023)

How the values were obtained:
Format in all cases: in vivo
[1] = Weight gain and water consumption of mice given the compounds in drinking water; conditions: old mice (15 months), 500 mg/kg p.o. in drinking water; compared with non-treated mice of 15 months (FIG. 1A)
Procedure: The administering of β-NMN at 500 mg/kg, of α-NMN at 500 mg/kg and of the vehicle (water) was obtained via oral route (p.o) in the drinking water to young and old mice. The solutions were prepared by dissolving the powder of β-NMN or α-NMN in the vehicle (water). The solution was used at ambient temperature for no more than 2 days and was freshly prepared for each new administration. The mice were weighed each week to adapt the dose of the compound to be administered. Throughout the entire phase, a standard food diet and tap water were provided ad libitum. The study comprised 4 groups each having 6 mice: • Group 1: young mice (aged 10 weeks)+drinking water (vehicle) • Groupe 2: old mice (aged 15 months)+drinking water (vehicle) • Group 3: old mice (aged 15 months)+compound I-B (alpha-NMN) in the drinking water • Group 4: old mice (aged 15 months)+compound I-A (beta-NMN) in the drinking water The water consumption of the mice was assessed per cage every other day. The mice were weighed every week. The mice in Group 3 were sacrificed after 4 weeks for organ collection and characterisation of T cell function. The mice in Group 4 were sacrificed after 6 weeks for organ collection and characterisation of T cell function. On the day of sacrifice, the mice were anaesthetised with Vetoflurane (isoflurane) and blood samples were taken from the retroorbital sinus. […]

[2] = test system: T cells present in the spleen; test: Flow cytometry of CD4+ and CD8+ T cells in the spleen of old mice; conditions: 500 mg/kg p.o.; for number of CD4+ effector T cells: α-NMN 4 weeks, β-NMN 6 weeks, compared with Group 3 (so in the source)
Procedure: The administering of β-NMN at 500 mg/kg, of α-NMN at 500 mg/kg and of the vehicle (water) was obtained via oral route (p.o) in the drinking water to young and old mice. The solutions were prepared by dissolving the powder of β-NMN or α-NMN in the vehicle (water). The study comprised 4 groups each having 6 mice: • Group 1: young mice (aged 10 weeks)+drinking water (vehicle) • Groupe 2: old mice (aged 15 months)+drinking water (vehicle) • Group 3: old mice (aged 15 months)+compound I-B (alpha-NMN) in the drinking water • Group 4: old mice (aged 15 months)+compound I-A (beta-NMN) in the drinking water The water consumption of the mice was assessed per cage every other day. The mice were weighed every week. The mice in Group 3 were sacrificed after 4 weeks for organ collection and characterisation of T cell function. The mice in Group 4 were sacrificed after 6 weeks for organ collection and characterisation of T cell function. On the day of sacrifice, the mice were anaesthetised with Vetoflurane (isoflurane) and blood samples were taken from the retroorbital sinus. The blood was incubated for 30 minutes at ambient temperature and then centrifuged at 1300 g for 10 minutes. After sacrificing of the mice, the spleen, thymus, and bone marrow of each animal were removed. The thymus was weighed and measured to evaluate involution thereof. For illustration purposes, photos of the thymus were taken on 5 animals per group. The thymus was divided into two parts: one part was treated with formol for histological examination. The second part was treated for characterisation of the immune cells. For characterisation of the cells, the thymus and spleen were crushed through a sieve of […] over a 50 mL tube with a syringe plunger. The bone marrow was rinsed with RPMI culture medium using a needle and syringe. The cell suspension was then centrifuged at 400 g for 5 minutes at 4° C. Lysis of the red blood cells was also performed before the cell count and use thereof for cytometry. The isolated cells of the spleen, thymus and bone marrow were marked with antibodies in accordance with the following tables to identify the proportion of effector and memory naive T and B cells. The following T cells of the spleen were also examined for characterisation as a function of the combination of proteins on the surface thereof: [table] Measured parameters: The results of flow cytometry are expressed in number or as a proportion of cells per organ. The weight of the thymus is expressed in grams.

[3] = test system: B cells in the bone marrow; test: Flow cytometry of B cells in bone marrow of old mice; conditions: 500 mg/kg p.o., α-NMN 4 weeks; for number of CD38+ B cells in bone marrow: β-NMN 6 weeks (FIG. 4B); for number of CD45+ B cells in bone marrow: β-NMN 6 weeks (FIG. 5A); for number of pre-pro-B cells in bone marrow: β-NMN 6 weeks (FIG. 5B); for number of pro-B cells in bone marrow: β-NMN 6 weeks (FIG. 5C); for number of pre-B cells in bone marrow: β-NMN 6 weeks (FIG. 5D); for number of immature B cells in bone marrow: β-NMN 6 weeks (FIG. 5E); for number of B cells in bone marrow: β-NMN 6 weeks, vs non-treated old mice (FIG. 4A)
Procedure: The administering of β-NMN at 500 mg/kg, of α-NMN at 500 mg/kg and of the vehicle (water) was obtained via oral route (p.o) in the drinking water to young and old mice. The solutions were prepared by dissolving the powder of β-NMN or α-NMN in the vehicle (water). The study comprised 4 groups each having 6 mice: • Group 1: young mice (aged 10 weeks)+drinking water (vehicle) • Groupe 2: old mice (aged 15 months)+drinking water (vehicle) • Group 3: old mice (aged 15 months)+compound I-B (alpha-NMN) in the drinking water • Group 4: old mice (aged 15 months)+compound I-A (beta-NMN) in the drinking water The water consumption of the mice was assessed per cage every other day. The mice were weighed every week. The mice in Group 3 were sacrificed after 4 weeks for organ collection and characterisation of T cell function. The mice in Group 4 were sacrificed after 6 weeks for organ collection and characterisation of T cell function. On the day of sacrifice, the mice were anaesthetised with Vetoflurane (isoflurane) and blood samples were taken from the retroorbital sinus. The blood was incubated for 30 minutes at ambient temperature and then centrifuged at 1300 g for 10 minutes. After sacrificing of the mice, the spleen, thymus, and bone marrow of each animal were removed. The thymus was weighed and measured to evaluate involution thereof. For illustration purposes, photos of the thymus were taken on 5 animals per group. The thymus was divided into two parts: one part was treated with formol for histological examination. The second part was treated for characterisation of the immune cells. For characterisation of the cells, the thymus and spleen were crushed through a sieve of […] over a 50 mL tube with a syringe plunger. The bone marrow was rinsed with RPMI culture medium using a needle and syringe. The cell suspension was then centrifuged at 400 g for 5 minutes at 4° C. Lysis of the red blood cells was also performed before the cell count and use thereof for cytometry. The isolated cells of the spleen, thymus and bone marrow were marked with antibodies in accordance with the following tables to identify the proportion of effector and memory naive T and B cells. The following bone marrow cells were also examined for characterisation as a function of the combination of proteins on the surface thereof: [table] Measured parameters: The results of flow cytometry are expressed in number or as a proportion of cells per organ. The weight of the thymus is expressed in grams.

NC(=O)c1ccc[n+]([C@@H]2O[C@H](COP(=O)([O-])O)[C@@H](O)[C@H]2O)c1 (stereo in doubt) [I-A, nicotinamide mononucleotide]
weight gain of the treated mice [1]: did not significantly increase the weight | number of CD4+ memory T cells in the spleen ([2]; 6 weeks, compared with the other groups (FIG. 7B)): increase in the memory T cells that is significant | total number of CD4+ T cells in the spleen ([2]; 6 weeks, compared with the other groups of mice (FIG. 7A)): significantly increased | number of CD4+ effector T cells [2]: increase in the number of CD4+ effector T cells | number of CD38+ B cells in bone marrow [3]: restoring of the number of CD38+ B cells to the level expressed by the young mice | number of CD45+ B cells in bone marrow [3]: significant increase in the number of CD45+ B cells | number of pre-pro-B cells in bone marrow [3]: increase in the number of pre-pro B cells | number of pro-B cells in bone marrow [3]: does not show any impact on the number of pro-B cells | number of pre-B cells in bone marrow [3]: increase in the number of pre-B cells | number of immature B cells in bone marrow [3]: increase | number of B cells in bone marrow [3]: significant increase in the number of B cells

NC(=O)c1ccc[n+]([C@H]2O[C@H](COP(=O)([O-])O)[C@@H](O)[C@H]2O)c1 (stereo in doubt) [I-B, alpha nicotinamide mononucleotide]
weight gain of the treated mice [1]: did not significantly increase the weight | number of naive CD8+ T cells in the spleen ([2]; 4 weeks (FIG. 8A)): does not modify the number of naive CD8+ T cells | levels of effector CD8+ T cells in the spleen ([2]; 4 weeks (FIG. 8B)): restoring of the levels of effector CD8+ T cells | levels of memory CD8+ T cells in the spleen ([2]; 4 weeks (FIG. 8C as printed)): restoring of the levels | levels of effector memory CD8+ T cells in the spleen ([2]; 4 weeks (FIG. 8D as printed)): restoring of the levels | number of CD4+ effector T cells [2]: increase in the number of CD4+ effector T cells | number of CD38+ B cells in bone marrow [3]: restoring of the number of CD38+ B cells to the level expressed by the young mice | number of CD45+ B cells in bone marrow [3]: significant increase in the number of CD45+ B cells | number of pre-pro-B cells in bone marrow [3]: increase in the number of pre-pro B cells | number of pro-B cells in bone marrow [3]: does not show any impact on the number of pro-B cells | number of pre-B cells in bone marrow [3]: increase in the number of pre-B cells | number of immature B cells in bone marrow [3]: increase | number of B cells in bone marrow [3]: significant increase in the number of B cells
